Test results published in US20230310416A1, “SUSPENSION OF TRIAZOLE ANTIFUNGAL DRUG FOR ATOMIZER” (SHANGHAI FRONTIER HEALTH PHARMACEUTICAL TECHNOLOGY CO., LTD, priority 2020, published 2023).

Test system: bleomycin-induced idiopathic pulmonary fibrosis in mice
Test: Mouse model of pulmonary fibrosis induced by bleomycin, inhalation versus oral administration
Type: in vivo, ICR mice
Conditions: once a day for 22 days
Procedure: In order to investigate the efficacy of itraconazole suspension of the present invention by inhalation administration, a mouse model of pulmonary fibrosis induced by bleomycin 2 mg/kg/mouse was established and compared with that by oral administration.
Test animals: ICR mice: SPF grade, body weight 22-24 g, male.
Test drugs: itraconazole suspension prepared in Example 3
Model establishment: 2 mg/kg of bleomycin hydrochloride for injection was sprayed into the respiratory tract of each mouse to induce pulmonary fibrosis, 4 weeks later, a mouse pulmonary fibrosis model was established.
Animal grouping: Mice were randomly divided into 4 groups, namely a blank control group, a model group, an itraconazole inhalation group, in which 2.5 mg/kg was inhaled for 3 minutes (2.5 mg/kg Inhalation group) and an itraconazole oral group, in which 15 mg/kg was orally administrated(15 mg/kg Oral group). The drugs were administered once a day for 22 consecutive days from the fifth day after modeling.
Detecting indexes: the mice were sacrificed after administration, the trachea was separated, the left lung was ligated, the bronchoalveolar lavage (BAL) was performed, the bronchoalveolar lavage fluid (BALF) was taken for white cell count and classification count, after the lung tissue was fixed with formalin, paraffin embedding, sectioning, H & E staining and Masson’s staining were carried out. The contents of transforming growth factor (TGF- β 1), mouse type I collagen (Col I) and hydroxyproline in lung tissue in supernatant of the BALF were detected by a kit.

With `CCC(C)n1ncn(-c2ccc(N3CCN(c4ccc(OCC5COC(Cn6cncn6)(c6ccc(Cl)cc6Cl)O5)cc4)CC3)cc2)c1=O` (stereo not drawn) [itraconazole] the “Collagen deposition in lung tissue” value (2.5 mg/kg inhalation) was 62759.9±17865.8, the “Content of Col I in BALF” value (2.5 mg/kg inhalation) was 1.64 ± 0.64 ng/mL and the “Content of TGF-β1 in BALF” value (2.5 mg/kg inhalation) was 32.13 ± 25.97 pg/mL. For the same molecule, the “Content of hydroxyproline in lung tissue” value (2.5 mg/kg inhalation) was 526.7 ±66.0 µg/g tissue, the “Number of neutrophils in BALF” value (2.5 mg/kg inhalation) was 12.08±5.85 1 × 10^4 cell/ml and the “Total number of white blood cells in BALF” value (2.5 mg/kg inhalation) was 26.13 ±5.93 1 × 10^4 cell/ml. For the same molecule, the “Collagen deposition in lung tissue” value (15 mg/kg oral) was 166628.8±35819.8, the “Content of Col I in BALF” value (15 mg/kg oral) was 1.91 ± 0.86 ng/mL and the “Content of TGF-β1 in BALF” value (15 mg/kg oral) was 24.79 ± 12.72 pg/mL. For the same molecule, the “Content of hydroxyproline in lung tissue” value (15 mg/kg oral) was 583.8 ±96.6 µg/g tissue, the “Number of neutrophils in BALF” value (15 mg/kg oral) was 13.71 ±7.58 1 × 10^4 cell/ml and the “Total number of white blood cells in BALF” value (15 mg/kg oral) was 29.13±10.99 1 × 10^4 cell/ml.
